# Reference: ChEMBL document CHEMBL3885861, “Open TG-GATES”
# Organism: Rattus norvegicus
# Experiment: Open TG-GATES - Regimen: Single
# Type: toxicity, organism-based, Sprague-Dawley
# Parameters: regimen Single, gender Male, age 6 weeks
# Details: in vivo, po, route gavage; for Bas / Eos / Fbg / Hb / Ht / Lym / MCHC / Mono / Plat / RBC / Ret / WBC / MCH / Neu / PT: tissue Blood; for KIDNEY_L / KIDNEY_R / KIDNEY_TOTAL: tissue Kidney; for LIVER: tissue Liver
# [1] = 40 mg/kg, 24 h, tissue Plasma, dose level Low
# [2] = 120 mg/kg, 3 h, dose level Middle
# [3] = 120 mg/kg, 3 h, tissue Plasma, dose level Middle
# [4] = 120 mg/kg, 6 h, dose level Middle
# [5] = 120 mg/kg, 6 h, tissue Plasma, dose level Middle
# [6] = 120 mg/kg, 9 h, dose level Middle
# [7] = 120 mg/kg, 9 h, tissue Plasma, dose level Middle
# [8] = 120 mg/kg, 24 h, dose level Middle
# [9] = 120 mg/kg, 24 h, tissue Plasma, dose level Middle
# [10] = 400 mg/kg, 3 h, dose level High
# [11] = 400 mg/kg, 3 h, tissue Plasma, dose level High
# [12] = 400 mg/kg, 6 h, dose level High
# [13] = 400 mg/kg, 6 h, tissue Plasma, dose level High
# [14] = 400 mg/kg, 9 h, dose level High
# [15] = 400 mg/kg, 9 h, tissue Plasma, dose level High
# [16] = 400 mg/kg, 24 h, dose level High
# [17] = 400 mg/kg, 24 h, tissue Plasma, dose level High
structure (smiles),measurement,setting,value
CCC(C)(C)C(=O)O[C@H]1C[C@@H](C)C=C2C=C[C@H](C)[C@H](CC[C@@H]3C[C@@H](O)CC(=O)O3)[C@H]21 [SIMVASTATIN],TC,[1],80.8 mg/dL
same,TG,[1],87.4 mg/dL
same,TP,[1],5.4 g/dL
same,gamma-GTP,[1],1.8 IU/L
same,TERMINAL_BW,[2],200.4 g
same,Bas,[2],0%
same,Eos,[2],1%
same,Fbg,[2],194.4 mg/dL
same,Hb,[2],12.5 g/dL
same,Ht,[2],37.9%
same,Lym,[2],81.8%
same,MCHC,[2],32.9%
same,Mono,[2],6.4%
same,Plat,[2],111.3 x10_4/uL
same,RBC,[2],573.6 x10_4/ul
same,Ret,[2],9.1%
same,WBC,[2],131.2 x10_2/uL
same,KIDNEY_L,[2],0.9 g
same,KIDNEY_R,[2],1 g
same,KIDNEY_TOTAL,[2],1.9 g
same,LIVER,[2],9.6 g
same,ALP,[3],1022 IU/L
same,ALT,[3],34.2 IU/L
same,AST,[3],66.6 IU/L
same,BUN,[3],11.6 mg/dL
same,CRE,[3],0.5 mg/dL
same,DBIL,[3],0.032 mg/dL
same,IP,[3],8.9 mg/dL
same,K,[3],4.7 meq/L
same,LDH,[3],117.2 IU/L
same,Na,[3],137.8 meq/L
same,PL,[3],134.8 mg/dL
same,RALB,[3],3.5 g/dL
same,TBIL,[3],0.3 mg/dL
same,TC,[3],74 mg/dL
same,TG,[3],56 mg/dL
same,TP,[3],5.5 g/dL
same,gamma-GTP,[3],1.6 IU/L
same,TERMINAL_BW,[4],200.1 g
same,Bas,[4],0%
same,Eos,[4],0.6%
same,Fbg,[4],203.2 mg/dL
same,Hb,[4],12.9 g/dL
same,Ht,[4],39.4%
same,Lym,[4],77.6%
same,MCH,[4],21.6 pg
same,MCHC,[4],32.9%
same,Mono,[4],6%
same,Neu,[4],15.8%
same,PT,[4],11.9 s
same,Plat,[4],114.7 x10_4/uL
same,RBC,[4],600.4 x10_4/ul
same,Ret,[4],8.4%
same,WBC,[4],123.6 x10_2/uL
same,KIDNEY_L,[4],0.9 g
same,KIDNEY_R,[4],0.9 g
same,KIDNEY_TOTAL,[4],1.8 g
same,LIVER,[4],8.9 g
same,ALP,[5],912.2 IU/L
same,ALT,[5],28.6 IU/L
same,AST,[5],57.2 IU/L
same,CRE,[5],0.5 mg/dL
same,DBIL,[5],0.086 mg/dL
same,IP,[5],9.6 mg/dL
same,K,[5],4.5 meq/L
same,LDH,[5],94 IU/L
same,Na,[5],137.6 meq/L
same,PL,[5],119 mg/dL
same,RALB,[5],3.5 g/dL
same,TBIL,[5],0.4 mg/dL
same,TC,[5],66.4 mg/dL
same,TG,[5],44 mg/dL
same,TP,[5],5.4 g/dL
same,gamma-GTP,[5],1.4 IU/L
same,TERMINAL_BW,[6],199.1 g
same,Bas,[6],0%
same,Eos,[6],1%
same,Fbg,[6],217.2 mg/dL
same,Hb,[6],12.9 g/dL
same,Ht,[6],39.5%
same,Lym,[6],77%
same,MCH,[6],21.6 pg
same,MCHC,[6],32.6%
same,Mono,[6],6%
same,Neu,[6],16.6%
same,PT,[6],11.8 s
same,Plat,[6],106.6 x10_4/uL
same,RBC,[6],598.2 x10_4/ul
same,Ret,[6],9%
same,WBC,[6],82.6 x10_2/uL
same,KIDNEY_L,[6],0.9 g
same,KIDNEY_R,[6],0.9 g
same,KIDNEY_TOTAL,[6],1.8 g
same,LIVER,[6],8.3 g
same,ALP,[7],788.6 IU/L
same,ALT,[7],30.8 IU/L
same,AST,[7],57.4 IU/L
same,CRE,[7],0.5 mg/dL
same,DBIL,[7],0.026 mg/dL
same,K,[7],4.7 meq/L
same,LDH,[7],88.2 IU/L
same,Na,[7],137.6 meq/L
same,PL,[7],119.4 mg/dL
same,RALB,[7],3.7 g/dL
same,TBIL,[7],0.3 mg/dL
same,TC,[7],70.6 mg/dL
same,TG,[7],29.6 mg/dL
same,TP,[7],5.4 g/dL
same,gamma-GTP,[7],1 IU/L
same,TERMINAL_BW,[8],207.4 g
same,Bas,[8],0%
same,Eos,[8],1%
same,Fbg,[8],209.2 mg/dL
same,Hb,[8],12.8 g/dL
same,Ht,[8],39.1%
same,Lym,[8],79.2%
same,MCHC,[8],32.8%
same,Mono,[8],6.2%
same,Neu,[8],14%
same,Plat,[8],123 x10_4/uL
same,RBC,[8],586 x10_4/ul
same,Ret,[8],8.3%
same,WBC,[8],87 x10_2/uL
same,KIDNEY_L,[8],1 g
same,KIDNEY_R,[8],1 g
same,KIDNEY_TOTAL,[8],2 g
same,ALP,[9],811 IU/L
same,ALT,[9],44 IU/L
same,AST,[9],67.8 IU/L
same,BUN,[9],18 mg/dL
same,CRE,[9],0.5 mg/dL
same,DBIL,[9],0.044 mg/dL
same,IP,[9],7.5 mg/dL
same,K,[9],4.7 meq/L
same,LDH,[9],127.8 IU/L
same,Na,[9],139.6 meq/L
same,PL,[9],129.4 mg/dL
same,RALB,[9],3.9 g/dL
same,TBIL,[9],0.4 mg/dL
same,TC,[9],69.4 mg/dL
same,TP,[9],5.5 g/dL
same,gamma-GTP,[9],2.4 IU/L
same,TERMINAL_BW,[10],201.6 g
same,Bas,[10],0%
same,Eos,[10],0.8%
same,Fbg,[10],211.2 mg/dL
same,Hb,[10],12.2 g/dL
same,Ht,[10],37.3%
same,Lym,[10],80.4%
same,MCH,[10],21.5 pg
same,MCHC,[10],32.8%
same,Mono,[10],8.4%
same,Neu,[10],10.8%
same,PT,[10],11.3 s
same,Plat,[10],110.1 x10_4/uL
same,RBC,[10],569 x10_4/ul
same,Ret,[10],10.9%
same,WBC,[10],116.1 x10_2/uL
same,KIDNEY_L,[10],1 g
same,KIDNEY_R,[10],1 g
same,KIDNEY_TOTAL,[10],2 g
same,LIVER,[10],9.3 g
same,ALP,[11],914.4 IU/L
same,ALT,[11],30.8 IU/L
same,AST,[11],61.6 IU/L
same,BUN,[11],11.8 mg/dL
same,CRE,[11],0.5 mg/dL
same,DBIL,[11],0.062 mg/dL
same,IP,[11],8.3 mg/dL
same,K,[11],4.7 meq/L
same,LDH,[11],107.8 IU/L
same,Na,[11],136.8 meq/L
same,PL,[11],131.4 mg/dL
same,RALB,[11],3.6 g/dL
same,TBIL,[11],0.3 mg/dL
same,TC,[11],74.2 mg/dL
same,TG,[11],37 mg/dL
same,TP,[11],5.6 g/dL
same,gamma-GTP,[11],1.2 IU/L
same,TERMINAL_BW,[12],205 g
same,Bas,[12],0%
same,Eos,[12],1%
same,Fbg,[12],209.4 mg/dL
same,Hb,[12],12.5 g/dL
same,Ht,[12],38.1%
same,Lym,[12],80.8%
same,MCH,[12],21.6 pg
same,MCHC,[12],32.7%
same,Mono,[12],4.2%
same,Neu,[12],14.6%
same,PT,[12],12.1 s
same,Plat,[12],109.4 x10_4/uL
same,RBC,[12],578.2 x10_4/ul
same,Ret,[12],11%
same,KIDNEY_L,[12],1 g
same,KIDNEY_R,[12],1 g
same,KIDNEY_TOTAL,[12],1.9 g
same,LIVER,[12],8.8 g
same,ALP,[13],979 IU/L
same,ALT,[13],29.4 IU/L
same,AST,[13],60.2 IU/L
same,BUN,[13],9.8 mg/dL
same,CRE,[13],0.5 mg/dL
same,DBIL,[13],0.078 mg/dL
same,IP,[13],9.6 mg/dL
same,K,[13],4.9 meq/L
same,LDH,[13],86 IU/L
same,Na,[13],137.2 meq/L
same,PL,[13],108 mg/dL
same,RALB,[13],3.4 g/dL
same,TBIL,[13],0.4 mg/dL
same,TC,[13],59 mg/dL
same,TG,[13],41.2 mg/dL
same,TP,[13],5.5 g/dL
same,gamma-GTP,[13],1.4 IU/L
same,TERMINAL_BW,[14],198.2 g
same,Bas,[14],0%
same,Eos,[14],0.6%
same,Fbg,[14],204.6 mg/dL
same,Hb,[14],12.5 g/dL
same,Ht,[14],37.7%
same,Lym,[14],80.8%
same,MCHC,[14],33.1%
same,Mono,[14],3.2%
same,Neu,[14],15.2%
same,PT,[14],12.6 s
same,Plat,[14],110.7 x10_4/uL
same,RBC,[14],576.4 x10_4/ul
same,Ret,[14],9.6%
same,WBC,[14],131.2 x10_2/uL
same,KIDNEY_L,[14],0.9 g
same,KIDNEY_R,[14],0.9 g
same,KIDNEY_TOTAL,[14],1.9 g
same,LIVER,[14],7.8 g
same,ALP,[15],778 IU/L
same,ALT,[15],30.2 IU/L
same,AST,[15],61.2 IU/L
same,BUN,[15],10.2 mg/dL
same,CRE,[15],0.6 mg/dL
same,DBIL,[15],0.066 mg/dL
same,GLC,[15],209 mg/dL
same,K,[15],5.2 meq/L
same,LDH,[15],86 IU/L
same,Na,[15],137.4 meq/L
same,PL,[15],100 mg/dL
same,RALB,[15],3.5 g/dL
same,TBIL,[15],0.3 mg/dL
same,TC,[15],56.8 mg/dL
same,TG,[15],24 mg/dL
same,TP,[15],5.1 g/dL
same,gamma-GTP,[15],1.2 IU/L
same,TERMINAL_BW,[16],201.5 g
same,Bas,[16],0%
same,Eos,[16],0.8%
same,Fbg,[16],218.6 mg/dL
same,Hb,[16],13.9 g/dL
same,Ht,[16],42.3%
same,Lym,[16],80.6%
same,MCHC,[16],32.8%
same,Mono,[16],4.6%
same,Neu,[16],14.4%
same,PT,[16],11.3 s
same,Plat,[16],125.3 x10_4/uL
same,RBC,[16],647.8 x10_4/ul
same,Ret,[16],7.9%
same,WBC,[16],86.8 x10_2/uL
same,KIDNEY_L,[16],1 g
same,KIDNEY_R,[16],1 g
same,KIDNEY_TOTAL,[16],1.9 g
same,LIVER,[16],9.9 g
same,ALP,[17],760.8 IU/L
same,ALT,[17],99 IU/L
same,AST,[17],81.6 IU/L
same,BUN,[17],15.2 mg/dL
same,CRE,[17],0.6 mg/dL
same,DBIL,[17],0.07 mg/dL
same,IP,[17],7.1 mg/dL
same,K,[17],5.2 meq/L
same,LDH,[17],117.6 IU/L
same,Na,[17],137.4 meq/L
same,PL,[17],93.6 mg/dL
same,RALB,[17],3.8 g/dL
same,TBIL,[17],0.4 mg/dL
same,TC,[17],53.6 mg/dL
same,TG,[17],38.4 mg/dL
same,TP,[17],5.4 g/dL
same,gamma-GTP,[17],1.4 IU/L
